These results are taken from article PMC9814400 (Communications Chemistry, 2022).

As a reminder, the Kd is the free concentration of one partner at which half of the binding sites on the other are occupied at equilibrium, for simple one-to-one binding.

Assay [1] concerns the target T1, p97-N (Homo sapiens, UniProt P55072).
T1 construct: Constructs of p97-N (aa 21-199, N-terminal 3 C protease-cleavable His6-tag); His6 (3C protease-cleavable) (N); made in house
Kind of assay: BLI dose-response binding to the isolated N-domain of p97. Particulars: for Kd: BLI steady state, 1:1 Langmuir model, errors from the fitting model; for LLEAT: based on KD for p97-N, heavy atom count and clogP; for ScoreBLI: based on sensorgrams from measurements with p97-N, about 1.0 or above = 1:1 binder; for LE: ligand efficiency based on KD for p97-N. As for the experimental part: The selected 42 fragments of the screen with the N-domain were tested in a dose-dependent manner using concentrations from 1000.0 µM to 31.3 µM in 1:1 dilution steps. […] The sensorgrams of these fragments were fitted with a 1:1 Langmuir model to estimate their affinities and analyzed with respect to the following parameters: (i) The presence of a stationary phase; (ii) curve shapes according to either a homogeneous (1:1) or a heterogeneous (2:1) binding model, and (iii) justification of a 1:1 binding model via the obtained empirical constants kobs of the association phase. Based on these analyses, a ScoreBLI was calculated (for details see Supplementary Methods in the Supporting Information). The calculated ScoreBLI should be close to or above 1.0 for ligands that can be described with a 1:1 model, whereas ligands showing unspecific binding yield values << 1.0. Based on the ScoreBLI, we divided the fragments into a low-scoring (<0.70) and a high-scoring (≥0.70) group.
Protein constructs for BLI measurements were enzymatically biotinylated using BirA[28]. Biotinylated p97 was loaded on Super Streptavidin Biosensors (SSA) obtained from Sartorius as follows. SSA-sensors were equilibrated in PBS-buffer, loaded with a protein solution containing 50 µg/mL (p97-ND1) or 100 µg/mL (p97-N) protein, blocked with biocytin and washed in PBS buffer. Reference SSA-sensors were set up by blocking them with a 10 µg/mL biocytin solution for 5 min[27]. The SSA-sensors were loaded to a shift of up to 7 nm with p97-ND1 and 10 nm with p97-N, respectively.
Screening plates were prepared by adding 10 µL of a 10 mM DMSO stock solution of library compound to 190 µL of PBS buffer (containing 0.05% TWEEN 20, 1 mM DTT and 5 mM MgCl2 [only for p97-ND1]) in 96 well plates (Greiner). The final DMSO concentration was 5% (v/v). All BLI measurements were performed on an Octet RED96e (Sartorius) device.
Selected fragments of the initial screenings were confirmed by dose-response-titrations using six concentrations ranging from 1000 to 31.3 µM in a 1:1 dilution series. Every concentration was measured twice. The assay settings were as follows: baseline measurement 15 s; association time 120 s and dissociation time 180 s. The double referenced data were further analyzed in Origin Pro to estimate the affinity by fitting the signals of the steady states to a 1:1 Langmuir model. For the fitting all measured data points (n = 2) were considered.
Definition of the quality score “ScoreBLI”
For selecting fragments for further analysis, the ScoreBLI was def ined as : […]
SSSSSSSSSSBBBBBB = rrmmmmmmmm 1:1rrmmmmmmmm 2:12 SSkkkkkkkk rmean 1:12 is the mean of the r2 coefficients of t he r egr es s ions of all association phases measured f or a given f ragment. The data were f itted with a 1:1 binding model:
RRPP = RRPPee ?1 − SS −(kkkkkkkk PP ) ? with RRPP the shift at the time t, k obs the empirical rate constant and RRPPee the shift at equilibrium.
In analogy, the rmean 2:12 was def ined by f itting with a 2:1 binding model:
RRPP = RRPPee 1 ?1 − SS −(kkkkkkkk1 PP) ? + RRPPee 2 ?1 − SS −(kkkkkkkk2 PP) ? A ligand f ollowing a 1:1 model would result in a good rmean2 f or both functions, whereas f or a lig and which is better described with a 2:1 model the rmean2 f or a 1:1 model would decrease, resulting in an overall decreased value.
In case of a 1:1 model the empirical rate constant k obs is proportional to the concentration of […]
kkkkkkkk = kkPP [LL ] + kkdd with ka t he association rate constant and kd t he dissociation rate constant. Theref ore, all observed empirical rate constants of a ligand were subjected to a linear regression model, which yielded the value r kobs2 .
A Langmuir model was used to es t im at e the affinities of the fragments. The use of this model requires that a chemical equilibrium is reached. To analyze whether this condition was met, the responses of the last 10 seconds of each association phase were f itted with a linear model. […]

The target in assay [2] is T2, p97-ND1 (Homo sapiens, UniProt P55072).
T2 construct: His6 (TEV protease-cleavable) (N); made in house
Kind of assay: STD-NMR with p97-ND1 in the presence of 500 µM ADP. Particulars: for maximum STD-effect (ND1) / mean STD-effect (ND1): Supplementary Table 3; for STD (maximum STD signal measured with p97-ND1): aromatic resonances, 428 µM fragment, 30 µM protein, 500 µM ADP. Further details: key to mean STD-effect (ND1) / maximum STD-effect (ND1): STD effect = Idiff/Ioff × 100 (%). The class given is binding. Here is the method:
The NMR measurements were carried out with the biologically more relevant p97-ND1 construct in the presence of 500 µM ADP to block the nucleotide binding site. The STD effect was calculated by dividing the intensity of the difference spectrum by the intensity of the off-spectrum (Idiff/ Ioff × 100) for each signal. For further analysis only resonances in the aromatic region of the ^1H NMR spectrum of the individual ligand were considered. A mean STD effect of each fragment interacting with p97-ND1 was calculated using the sum of the individual STD effects divided by the number of signals considered. Furthermore, the maximum STD effect of each compound was determined. […] Similar results were obtained in the previously reported fragment screen with p97[26]. An overview of the STD effects is shown in Supplementary Fig. 4.
All Saturation-Transfer-Difference (STD)[32] measurements were performed on a Bruker Avance III 400 MHz spectrometer (Karlsruhe, Germany) operating at 400.13 MHz with a PABBI 1H/D-BB Z-GRD inverse probe at 300 K adjusted with a BSVT (Bruker) temperature control unit. Temperature calibration was carried out with 99.8% CD3OD (282–330 K). The stddiffesgp.3 pulse program from the Bruker pulseprogram library was used for data acquisition. The suppression of the HDO signal (4.703 ppm) was achieved by the excitation sculpting method. The saturation frequency for the on- and off-resonances was set to −400 Hz and −16,000 Hz, respectively. The saturation time was 3 s with a relaxation delay D1 of 4 s.
The protein stock solutions were transferred to a deuterated buffer containing 35 mM potassium phosphate and 25 mM NaCl in D2O at a pD of 7.5 using 0.5 mL Centricon devices (Merck Millipore) with a MWCO of 30 kDa by washing and centrifuging several times at 10,000 × g and 4 °C. Buffer-exchanged protein was adjusted to a concentration of 30 µM with NMR buffer. The respective fragment concentration was 428 µM with a final DMSO-d6 fraction of 5% (v/v). All measurements were performed in the presence of 500 µM ADP (in case of the ND1 domain) and 5 mM MgCl2. All data were analyzed using TopSpin 4.0.8 (Bruker Corporation, Billerica, MA, USA).

T1 sequence (P55072 21-199): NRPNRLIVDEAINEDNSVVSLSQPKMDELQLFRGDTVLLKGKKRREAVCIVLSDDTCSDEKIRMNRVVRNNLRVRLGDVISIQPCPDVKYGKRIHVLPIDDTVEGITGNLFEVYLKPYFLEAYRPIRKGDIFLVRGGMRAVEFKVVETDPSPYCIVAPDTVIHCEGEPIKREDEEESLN
T2 sequence (P55072 2-481): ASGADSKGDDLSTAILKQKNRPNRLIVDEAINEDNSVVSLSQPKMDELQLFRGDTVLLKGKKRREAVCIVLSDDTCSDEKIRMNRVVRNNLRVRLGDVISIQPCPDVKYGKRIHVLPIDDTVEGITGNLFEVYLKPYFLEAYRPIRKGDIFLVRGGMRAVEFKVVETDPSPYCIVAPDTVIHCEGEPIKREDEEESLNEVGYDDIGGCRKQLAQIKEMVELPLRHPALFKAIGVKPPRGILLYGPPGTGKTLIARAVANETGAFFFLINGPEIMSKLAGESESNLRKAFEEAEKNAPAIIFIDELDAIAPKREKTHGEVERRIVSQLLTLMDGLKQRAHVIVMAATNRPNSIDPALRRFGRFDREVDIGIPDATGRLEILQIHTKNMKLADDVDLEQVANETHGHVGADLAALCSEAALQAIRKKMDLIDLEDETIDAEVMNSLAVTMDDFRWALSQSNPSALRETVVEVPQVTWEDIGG

In assay [1], `NCC(O)c1ccc(Br)cc1` (stereo not drawn) [TROLL2] gave a Kd of 56 ± 46 µM, an LLEAT of 0.47, a ScoreBLI of 0.83 and an LE of 0.52. In assay [2], the “maximum STD-effect (ND1)” value amounted to 37.7, the “mean STD-effect (ND1)” value is recorded as 36.0 and the “STD (maximum STD signal measured with p97-ND1)” value was 37.7%.
`Cc1ccc(-c2cc(N)n[nH]2)o1` [TROLL8]: in assay [1], the affinity, expressed as Kd, was 245 ± 43 µM; the LLEAT amounted to 0.40; the ScoreBLI is listed as 0.91; the LE turned out to be 0.41. Also, in assay [2], the “maximum STD-effect (ND1)” value is 41.0, the “mean STD-effect (ND1)” value is on record as 33.1 and the “STD (maximum STD signal measured with p97-ND1)” value is reported as 41.0%.
In assay [1], `Cc1oc(CN)nc1-c1ccccc1` [TROLL12] returned a Kd of 354 ± 17 µM, an LLEAT of 0.34, a ScoreBLI of 0.84 and an LE of 0.33. Further, in assay [2], the “maximum STD-effect (ND1)” value is reported as 47.9, the “mean STD-effect (ND1)” value is 44.5 and the “STD (maximum STD signal measured with p97-ND1)” value stood at 47.9%.
